Measurements reported in patent US20240408059A1, “METHOD OF TREATING ADDICTION” (Anebulo Pharmaceuticals, Inc., priority 2021, published 2024).

Assays:
[1] = patients taking the drug long term; vs 5%; cited from earlier work
[2] = target: T1, CYP3A4 (Homo sapiens, UniProt P08684); conditions: CYP3A4 inhibitors increase the concentrations of both drugs; cited from earlier work
[3] = Half-life of Compound 2 (once daily dosing, steady state); assay type: in vivo; conditions: accumulation enables slow onset; 24 h coverage in steady state with once daily dosing
Method: (§1) In steady state, the patient has 24 h coverage despite convenient once daily dosing. […] Both antidepressants and drug withdrawal can decrease the seizure threshold.

[4] = target: T1, CYP3A4; assay: Drug-drug interactions, CYP3A4 inhibition; assay type: in vitro ADME
Method: as §1

[5] = Seizure liability; conditions: in vivo
Method: as §1

[6] = Compound 2 in treatment of cannabis use disorder (CUD) / cannabis withdrawal; assay type: in vivo, human
Description: Compound 2 is used in a combination treatment for cannabis use disorder (CUD). Combinations include use of antidepressants (specifically sedating antidepressants, such as mirtazapine or trazodone), antipsychotics, CB1 agonists such as THC and allosteric CB1 modulators such as Cannabidiol. These agents improve the safety profile of a CB1 inhibitor as described herein, such as compound 2, and lessen the burden of the withdrawal symptoms.
The benefits of a combination therapy comprising compound 2 and a sedating antidepressant, such as Mirtazapine or Trazodone, are outline in Table 1 below.
Daily doses such as between about 5 mg and about 100 mg of Compound 2 are efficacious in CUD. Doses of 1-50 mg or 20 to 30 mg may also be used. Compound 2 is also evaluated in combination with daily doses of Mirtazapine at about 15 mg to about 45 mg, or daily doses of Trazodone at about 50 mg to about 400 mg. Mirtazapine is given at bedtime. In another embodiment, Compound 2 and Mirtazapine are formulated and administered as a single oral dosage form, such as a tablet or a capsule.

T1 sequence (P08684 whole entry): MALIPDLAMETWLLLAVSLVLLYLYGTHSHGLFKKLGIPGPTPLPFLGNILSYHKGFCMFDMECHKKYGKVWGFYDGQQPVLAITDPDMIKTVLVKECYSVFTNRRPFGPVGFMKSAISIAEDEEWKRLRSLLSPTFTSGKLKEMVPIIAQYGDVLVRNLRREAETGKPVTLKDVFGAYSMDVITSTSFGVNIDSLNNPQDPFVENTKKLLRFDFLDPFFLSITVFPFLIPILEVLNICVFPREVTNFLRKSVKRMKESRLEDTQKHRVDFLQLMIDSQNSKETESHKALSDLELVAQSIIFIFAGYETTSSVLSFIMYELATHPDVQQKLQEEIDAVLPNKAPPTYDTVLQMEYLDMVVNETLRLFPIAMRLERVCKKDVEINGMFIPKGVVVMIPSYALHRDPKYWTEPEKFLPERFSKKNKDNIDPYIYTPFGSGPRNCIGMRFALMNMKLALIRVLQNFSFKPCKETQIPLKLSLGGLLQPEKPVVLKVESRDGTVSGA

Cc1c(C(=O)NN2CCCCC2)nn(-c2ccc(Cl)cc2Cl)c1-c1ccc(Cl)cc1 [Rimonabant]
incidence of depression [1]: 9%

CN1CCN2c3ncccc3Cc3ccccc3C2C1 (stereo not shown) [Mirtazapine]
metabolizing enzyme [2]: metabolized by CYP3A4

O=c1n(CCCN2CCN(c3cccc(Cl)c3)CC2)nc2ccccn12 [Trazodone]
metabolizing enzyme [2]: metabolized by CYP3A4

CC(C)(C)NC(=O)N1CC(O[C@H](c2ccc(Cl)cc2)c2ccccc2C(F)(F)F)C1 [Compound 2, (R)—N-(tert-butyl)-3-((4-chlorophenyl)(2-(trifluoromethyl)phenyl)methoxy)azetidine-1-carboxamide]
half-life [3]: Long half-life | drug-drug interactions, particularly CYP3A4 inhibition [4]: Lack of drug-drug interactions, particularly CYP3A4 inhibition | seizure liability [5]: Lack of seizure liability | Effect of Compound 2 on anxiety (withdrawal symptoms) ([6]; cannabis withdrawal): Increases anxiety | Effect of Compound 2 on high probability of THC use/relapse: anti-addictive properties ([6]; cannabis withdrawal): has anti-addictive | Effect of Compound 2 on high probability of THC use/relapse: getting high ([6]; cannabis withdrawal): Blocks getting high + | Effect of Compound 2 on mood ([6]; cannabis withdrawal): Depressed mood | Effect of Compound 2 on sleep problems (withdrawal symptoms) ([6]; cannabis withdrawal): Increases sleep | Effect of Compound 2 on weight ([6]; cannabis withdrawal): Weight loss | efficacy in CUD ([6]; daily doses between about 5 mg and about 100 mg): efficacious
